# US20240124442A1, “TRICYCLIC-AMIDO-BICYCLIC PRMT5 INHIBITORS” (AMGEN INC., priority 2021, published 2024)
# Assays:
# HCT116 MTAP null cells = assay: HCT116 MTAP null cell line proliferation / cell viability (CellTiter-Glo, 6 days); format: cell-based; conditions: 144 h; HCT116 MTAP null cells, 6 days treatment, CellTiter-Glo cell viability; read-out: HCT-116 MTAP null IC50
# How it was run: (§1)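 Isogenic HCT116 pair (parental and MTAP-knockout) in RPMI 1640 + 10% FBS, treated 6 days with 8–9-point 1:3 dilutions from 1 or 10 μM top, or 22-point 1:2 dilutions from 10 or 50 μM top. Viability by CellTiter-Glo luminescence; IC50 from 4-parameter logistic fit or sigmoidal fit with Hill slope fixed at −1.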
# HCT116 WT cells = assay: HCT116 WT (parent) cell line proliferation / cell viability (CellTiter-Glo, 6 days); format: cell-based; conditions: Homo sapiens, HCT-116, 144 h, 6 days treatment
# How it was run: as §1
IC50 (HCT116 MTAP null cells),IC50 (HCT116 WT cells),SMILES
6 nM,162 nM,"Cc1cc2nc(N)c3cnn(C)c3c2cc1C(=O)N(C)[C@@H]1COCc2nc(C(F)(F)F)ccc21 [Example 297, 4-amino-N,1,7-trimethyl-N-((5S)-2-(trifluoromethyl)-5,8-dihydro-6H-pyrano[3,4-b]pyr-idin-5-yl)-1H-pyrazolo[4,3-c]-quinoline-8-carboxamide]"
256 nM,12600 nM,"CN(C(=O)c1cc2c3c(c(N)nc2cn1)COC3)[C@@H]1CCOc2cc(C(F)(F)F)ccc21 (single isomer, unassigned) [Example 585]"
5 nM,535 nM,"CN(C(=O)c1ccc2nc(N)c3cnn(C)c3c2c1)[C@@H]1COc2cc(-c3ccc(F)nc3F)ccc21 [Example 642, 4-amino-N-((3S)-6-(2,6-difluoro-3-pyridinyl)-2,3-dihydro-1-benzofuran-3-yl)-N,1-dimethyl-1H-pyrazolo[4,3-c]quinoline-8-carboxamide]"
9 nM,200 nM,"Nc1nc2cc(Cl)c(C(=O)N(C3CC3)[C@@H]3COc4cc(C(F)(F)F)ccc43)cc2c2c1COC2 [Example 442, (S)-4-amino-7-chloro-N-cyclopropyl-N-(6-(trifluoromethyl)-2,3-dihydrobenzofuran-3-yl)-1,3-dihydrofuro[3,4-c]quinoline-8-carboxamide]"
19 nM,735 nM,"CN(C(=O)c1ccc2nc(N)c3cnn(C)c3c2c1)[C@@H]1COc2cc(-c3c(C(F)(F)F)cnn3C)ccc21 [Example 653, 4-amino-N,1-dimethyl-N-((3S)-6-(1-methyl-4-(trifluoromethyl)-1H-pyrazol-5-yl)-2,3-dihydro-1-benzofuran-3-yl)-1H-pyrazolo[4,3-c]quinoline-8-carboxamide]"
8 nM,247 nM,"COc1ccc2c(c1)COC[C@H]2N(C)C(=O)c1cc2c(cc1F)nc(N)c1cnn(C)c12 (single isomer, unassigned) [Example 427]"
34 nM,4280 nM,"COc1ccc2c(c1)OC[C@H]2N(C)C(=O)c1ccc2nc(N)c3cnn(C)c3c2c1 [Example 671, (S)-4-amino-N-(6-methoxy-2,3-dihydrobenzofuran-3-yl)-N,1-dimethyl-1H-pyrazolo[4,3-c]quinoline-8-carboxamide]"
32 nM,1380 nM,"CN(C(=O)c1cc2c3c(c(N)nc2cc1F)COC3)[C@@H]1COc2cc(S(C)(=O)=O)ccc21 (single isomer, unassigned) [Example 353]"
5 nM,212 nM,"CCN(C(=O)c1ccc2nc(N)c3cnn(C)c3c2c1)[C@@H]1COc2cc(C(F)(F)F)ccc21 (single isomer, unassigned) [Example 365]"
6990 nM,50000 nM,"CN(C(=O)c1cc2c3c(c(N)nc2cn1)COC3)[C@H]1COCc2ccc(C(F)(F)F)cc21 (single isomer, unassigned) [Example 584]"
665 nM,10500 nM,"Nc1nc2cc(F)c(C(=O)N(CC3CC3)[C@H]3COc4cc(C(F)(F)F)ccc43)cc2c2c1COC2 (single isomer, unassigned) [Example 557]"
12 nM,685 nM,"CN(C(=O)c1cc2c(cc1F)nc(N)c1cnn(C)c12)[C@@H]1COc2cc(C(F)(F)F)ncc21 (single isomer, unassigned) [Example 573]"
920 nM,22300 nM,"C[C@H]1OCc2c1c(N)nc1ccc(C(=O)N(C)[C@H]3COc4cc(Br)ccc43)cc21 (single isomer, unassigned) [Example 332]"
339 nM,32100 nM,"CN(C(=O)c1ccc2nc(N)c3cnn(C)c3c2c1)[C@@H]1COc2cc(-c3cnc(=O)[nH]c3)ccc21 [Example 637, 4-amino-N,1-dimethyl-N-((3S)-6-(2-oxo-1,2-dihydro-5-pyrimidinyl)-2,3-dihydro-1-benzofuran-3-yl)-1H-pyrazolo[4,3-c]quinoline-8-carboxamide]"
6 nM,72 nM,"CN(C(=O)c1cc2c(cn1)nc(N)c1cnn(C)c12)[C@@H]1COCc2cc(C(F)(F)F)ccc21 [Example 288, 4-amino-N,1-dimethyl-N-((4S)-7-(trifluoromethyl)-3,4-dihydro-1H-2-benzopyran-4-yl)-1H-pyrazolo[4,3-c][1,7]naphthyr-idine-8-carboxamide]"
17 nM,649 nM,"CN(C(=O)c1ccc2nc(N)c3cnn(C)c3c2c1)[C@@H]1COc2cc(C3=CCC(F)(F)CC3)ccc21 [Example 619, 4-amino-N-((3S)-6-(4,4-difluoro-1-cyclohexen-1-yl)-2,3-dihydro-1-benzofuran-3-yl)-N,1-dimethyl-1H-pyrazolo[4,3-c]quinoline-8-carboxamide]"

IC50 (HCT116 MTAP null cells),IC50 (HCT116 WT cells),SMILES
25 nM,2420 nM,"Cc1cc2nc(N)c3c(cnn3C)c2cc1C(=O)N(C)[C@@H]1COCc2nc(C(F)(F)F)ccc21 [Example 520, 4-amino-N,3,7-trimethyl-N-((5S)-2-(trifluoromethyl)-5,8-dihydro-6H-pyrano[3,4-b]pyridin-5-yl)-3H-pyrazolo[3,4-c]quinoline-8-carboxamide]"
463 nM,25800 nM,"CN(C(=O)c1cc2c3c(c(N)nc2cc1Cl)COC3)[C@H]1COCc2nc(C#N)ccc21 (single isomer, unassigned) [Example 403]"
49 nM,1460 nM,"CCN(C(=O)c1cc2c3c(c(N)nc2cn1)COC3)[C@@H]1COc2cc(C(F)(F)F)ccc21 (single isomer, unassigned) [Example 543]"
15 nM,439 nM,"COc1ccc2c(c1)COC[C@H]2N(C)C(=O)c1cc2c(cn1)nc(N)c1cnn(C)c12 (single isomer, unassigned) [Example 420]"
6 nM,291 nM,"CN(C(=O)c1ccc2nc(N)c3cnn(C)c3c2c1)[C@@H]1COc2cc(-c3ccc(C(F)(F)F)cn3)ccc21 [Example 652, 4-amino-N,1-dimethyl-N-((3S)-6-(5-(trifluoromethyl)-2-pyridinyl)-2,3-dihydro-1-benzofuran-3-yl)-1H-pyrazolo[4,3-c]quinoline-8-carboxamide]"
9 nM,82 nM,"CCN(C(=O)c1cc2c(cc1F)nc(N)c1cnn(C)c12)[C@@H]1COc2cc(C(F)(F)F)ccc21 [Example 243, 4-amino-N-ethyl-7-fluoro-1-methyl-N-((3S)-6-(trifluoro-methyl)-2,3-dihydro-1-benzo-furan-3-yl)-1H-pyrazolo[4,3-c]-quinoline-8-carboxamide]"
42 nM,1600 nM,"CN(C(=O)c1ccc2nc(N)c3cnn(C)c3c2c1)[C@@H]1COc2cc(-c3cc(F)cc(F)c3)ccc21 [Example 641, 4-amino-N-((3S)-6-(3,5-difluorophenyl)-2,3-dihydro-1-benzofuran-3-yl)-N,1-dimethyl-1H-pyrazolo[4,3-c]quinoline-8-carboxamide]"
2 nM,46 nM,"Cc1cc2nc(N)c3cnn(C)c3c2cc1C(=O)N(C)[C@@H]1COc2cc(C(F)(F)F)ccc21 [Example 250, 4-amino-N,1,7-trimethyl-N-((3S)-6-(trifluoromethyl)-2,3-dihydro-1-benzofuran-3-yl)-1H-pyrazolo[4,3-c]quinoline-8-carboxamide]"
792 nM,35200 nM,"COc1ccc2c(c1)COC[C@@H]2N(C)C(=O)c1cc2c(cn1)nc(N)c1cnn(C)c12 (single isomer, unassigned) [Example 421]"
1330 nM,10000 nM,"CN(C(=O)c1cc2c3c(c(N)nc2cn1)COC3)[C@H]1COCc2cc(Br)ccc21 (single isomer, unassigned) [Example 399]"
5 nM,133 nM,"CN(C(=O)c1cc2c(cc1F)nc(N)c1cnn(C)c12)[C@@H]1COc2cc(OC(F)(F)F)ccc21 [Example 478, 4-amino-7-fluoro-N,1-dimethyl-N-((3S)-6-(trifluoromethoxy)-2,3-dihydro-1-benzofuran-3-yl)-1H-pyrazolo[4,3-c]quinoline-8-carboxamide]"
4160 nM,50000 nM,"COc1ccc2c(n1)OC[C@@H]2N(C)C(=O)c1ccc2nc(N)c3c(c2c1)COC3 (single isomer, unassigned) [Example 525]"
1610 nM,22900 nM,"CN(C(=O)c1ccc2nc(N)c3c(c2c1)COC3)[C@H]1COc2cc(Br)ccc21 (single isomer, unassigned) [Example 330]"
13 nM,682 nM,"C[C@H]1OCc2c1c(N)nc1ccc(C(=O)N(C)[C@@H]3COCc4nc(C(F)(F)F)ccc43)cc21 [Example 488, (3R)-4-amino-N,3-dimethyl-N-((5S)-2-(trifluoromethyl)-5,8-dihydro-6H-pyrano[3,4-b]pyridin-5-yl)-1,3-dihydrofuro[3,4-c]quinoline-8-carboxamide]"
111 nM,5060 nM,"CN(C(=O)c1cc2c(cc1F)nc(N)c1c2cnn1C)C1COCc2cc(OC(F)(F)F)ccc21 [Example 306, 4-amino-7-fluoro-N,3-dimethyl-N-((4R)-7-(trifluoromethoxy)-3,4-dihydro-1H-2-benzopyran-4-yl)-3H-pyrazolo[3,4-c]quin-oline-8-carboxamide and 4-amino-7-fluoro-N,3-dimethyl-N-((4S)-7-(trifluoromethoxy)-3,4-dihydro-1H-2-benzopyran-4-yl)-3H-pyrazolo[3,4-c]quin-oline-8-carboxamide]"
864 nM,36000 nM,"CN(C(=O)c1ccc2nc(N)c3c(c2c1)COC3)[C@@H]1COc2cc(S(C)(=N)=O)ccc21 (stereo partly drawn) [Example 446, 4-amino-N-methyl-N-((3S)-6-(S-methylsulfonimidoyl)-2,3-dihydro-1-benzofuran-3-yl)-1,3-dihydrofuro[3,4-c]quinoline-8-carboxamide]"
